From ChEMBL document CHEMBL1201862, “PubChem BioAssay data set” (2004)
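Five compound concentrations were applied to cells in 96-well plates for 48 hours; endpoints were derived by simple linear interpolation of the resulting dose-response curve. GI50: concentration for 50% inhibition of growth.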 Activity calls are given as the source filed them. No stated cut-off is given here; in the data, active = GI50 up to about 1.1 µM and inactive = higher.

Key:
Assay in all cases: NCI tumour cell line growth inhibition, 48 h
[1] = test system: A549
[2] = test system: COLO 205
[3] = test system: EKVX
[4] = test system: HCT-15
[5] = test system: Hs-578T
[6] = test system: MDA-MB-231
[7] = test system: NCI/ADR-RES
[8] = test system: OVCAR-5
[9] = test system: OVCAR-8
[10] = test system: RPMI-8226
[11] = test system: SF-268
[12] = test system: SF-539
[13] = test system: SK-MEL-28
[14] = test system: SNB-75
[15] = test system: TK-10
[16] = test system: UACC-257
[17] = test system: UO-31
[18] = test system: A498
[19] = test system: NCI-H460

SMILES | GI50 [1] | GI50 [2] | GI50 [3] | GI50 [4] [µM] | GI50 [5] | GI50 [6] | GI50 [7] | GI50 [8] | GI50 [9] | GI50 [10] | GI50 [11] | GI50 [12] | GI50 [13] | GI50 [14] | GI50 [15] | GI50 [16] | GI50 [17] | GI50 [18] | GI50 [19]
Cc1ccc(/C=N/Nc2ccc3ccccc3n2)s1 | 14.3 µM (inactive) | 12.9 µM (inactive) | 4.73 µM (inactive) | 12 | 25.2 µM (inactive) | 15.5 µM (inactive) | 35.5 µM (inactive) | 27.3 µM (inactive) | 26.7 µM (inactive) | 14.2 µM (inactive) | 60.1 µM (inactive) | 83.4 µM (inactive) | 17.2 µM (inactive) | > 100 µM (inactive) | 22.1 µM (inactive) | 6.01 µM (inactive) | > 100 µM (inactive) | – | –
C[C@@]12CCC3C1C=C1C(=O)c4cc(O)ccc4C(=O)[C@]1(O2)[C@@]3(C)C=O | 12 µM (inactive) | 9.31 µM (inactive) | 9.71 µM (inactive) | 2.66 | 16.2 µM (inactive) | 8.71 µM (inactive) | 9.31 µM (inactive) | 13.7 µM (inactive) | 6.01 µM (inactive) | 2.2 µM (inactive) | 9.91 µM (inactive) | 3.82 µM (inactive) | – | – | 11.6 µM (inactive) | 9.16 µM (inactive) | 4.9 µM (inactive) | 1.48 µM (inactive) | 2.85 µM (inactive)
CC1=CC(C)(C)[C@H]2O[C@@]3(O)C[C@]4(C)[C@H]5C[C@@](C(C)C)(O[C@H]4c4ccoc4)O[C@H]4[C@]5(C3)O[C@@]1(O)[C@]24O | 75.9 µM (inactive) | > 100 µM (inactive) | > 100 µM (inactive) | > 100 | 18.7 µM (inactive) | 81.3 µM (inactive) | > 100 µM (inactive) | > 100 µM (inactive) | > 100 µM (inactive) | > 100 µM (inactive) | > 100 µM (inactive) | > 100 µM (inactive) | 81.8 µM (inactive) | 12.3 µM (inactive) | > 100 µM (inactive) | > 100 µM (inactive) | > 100 µM (inactive) | – | –
CC(C)(C)C1CC[C@H](O)[C@H]([C@H](O)CC2CC(=O)N(c3ccccc3)C(=O)C2)C1 (some centres undefined) | > 100 µM (inactive) | – | > 100 µM (inactive) | > 100 | > 100 µM (inactive) | > 100 µM (inactive) | > 100 µM (inactive) | > 100 µM (inactive) | > 100 µM (inactive) | – | > 100 µM (inactive) | > 100 µM (inactive) | > 100 µM (inactive) | > 100 µM (inactive) | > 100 µM (inactive) | > 100 µM (inactive) | > 100 µM (inactive) | > 100 µM (inactive) | 95.9 µM (inactive)
COc1ccc2[nH]cc(CCNC(=O)[C@H](Cc3ccc(O)cc3)NC(=O)[C@@H](NCC(F)(F)F)C(C)C)c2c1 | 45.7 µM (inactive) | 41.9 µM (inactive) | 99.8 µM (inactive) | > 100 | 31 µM (inactive) | > 100 µM (inactive) | > 100 µM (inactive) | > 100 µM (inactive) | 76 µM (inactive) | 34.4 µM (inactive) | – | > 100 µM (inactive) | 65.5 µM (inactive) | – | > 100 µM (inactive) | 62.5 µM (inactive) | > 100 µM (inactive) | – | 48 µM (inactive)
O=C1NC(=O)[C@@H](OCC2CCCCC2)[C@@H]2OCC3OC(C(O)C3O)C12 (some centres undefined) | > 100 µM (inactive) | > 100 µM (inactive) | > 100 µM (inactive) | > 100 | > 100 µM (inactive) | > 100 µM (inactive) | > 100 µM (inactive) | > 100 µM (inactive) | > 100 µM (inactive) | – | > 100 µM (inactive) | > 100 µM (inactive) | > 100 µM (inactive) | – | > 100 µM (inactive) | > 100 µM (inactive) | – | > 100 µM (inactive) | > 100 µM (inactive)
COc1ccc(S(=O)(=O)Nc2ccc(-c3csc(N4C(=O)/C(=C/C=C\c5ccccc5)N=C4c4ccccc4)n3)cc2)cc1Cl | 28.9 µM (inactive) | 39.4 µM (inactive) | – | 21.8 | 29.9 µM (inactive) | 22.9 µM (inactive) | 28.7 µM (inactive) | 38.6 µM (inactive) | 23.2 µM (inactive) | – | 19.1 µM (inactive) | 36.6 µM (inactive) | 59.7 µM (inactive) | 33.4 µM (inactive) | 38.5 µM (inactive) | 33 µM (inactive) | 28.3 µM (inactive) | 22.5 µM (inactive) | 32.1 µM (inactive)
CC(=O)C(C(=O)C(C)(C)C)C(=O)C(C)(C)C | > 100 µM (inactive) | > 100 µM (inactive) | – | > 100 | > 100 µM (inactive) | > 100 µM (inactive) | > 100 µM (inactive) | > 100 µM (inactive) | > 100 µM (inactive) | > 100 µM (inactive) | > 100 µM (inactive) | > 100 µM (inactive) | > 100 µM (inactive) | 59.4 µM (inactive) | > 100 µM (inactive) | > 100 µM (inactive) | > 100 µM (inactive) | – | > 100 µM (inactive)
